The values that follow come from PubChem BioAssay (NCI).

Among the test systems are MDA-MB-435; CAKI-1 renal; U251 CNS; HOP-92 NSCLC; LOX IMVI melanoma; MCF7 breast; SK-OV-3 ovarian; HCC-2998 colon; SK-MEL-5 melanoma; SF-539 CNS; SF-268 CNS; OVCAR-8 ovarian; SF-295 CNS; HCT-116 colon; SK-MEL-2 melanoma; SN12C renal; RPMI-8226 leukemia.
Assay in all cases: NCI anticancer screen, dose series, 48 h

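A five-concentration, 48-hour dose response in 96-well plates underlies each endpoint, interpolated linearly between surrounding concentrations. TGI marks complete inhibition of growth.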

Consider `O=c1oc2ccccc2cc1-c1csc(Nc2ccc(F)cc2)n1`, for which the TGI in the experiment on MDA-MB-435 turned out to be 17 µM; with CAKI-1 renal, 10.6 µM; in the experiment with U251 CNS it was 9.55 µM; in the experiment with HOP-92 NSCLC, 24.4 µM; in the experiment on LOX IMVI melanoma, 14.9 µM; with MCF7 breast it was 15.5 µM. For the same compound, the TGI with SK-OV-3 ovarian is 15.6 µM; in the experiment with HCC-2998 colon, 17.1 µM; in the experiment with SK-MEL-5 melanoma, 23.9 µM; with SF-539 CNS it was 3.5 µM; in the experiment on SF-268 CNS, 9.09 µM; in the experiment with OVCAR-8 ovarian, 23.5 µM. Moreover, the TGI in the experiment with SF-295 CNS worked out at 10.7 µM; in the experiment with HCT-116 colon, 5.65 µM; in the experiment on SK-MEL-2 melanoma it was 39.2 µM; with SN12C renal, 10.1 µM; with RPMI-8226 leukemia it was 4.44 µM.

Turning to `O=c1[nH]nc(-c2ccccc2)n1/N=C/c1ccc([N+](=O)[O-])cc1`, the TGI was above 100 µM with MDA-MB-435; above 59.3 µM with CAKI-1 renal; 20.8 µM with U251 CNS; 32 µM with HOP-92 NSCLC; above 100 µM with LOX IMVI melanoma; above 100 µM in the experiment on MCF7 breast. The TGI with SK-OV-3 ovarian was 9.34 µM; in the experiment on HCC-2998 colon it was above 83.5 µM; with SK-MEL-5 melanoma, above 100 µM; in the experiment with SF-539 CNS, above 100 µM; with SF-268 CNS, above 87.2 µM; in the experiment on OVCAR-8 ovarian, 37.1 µM. Further, the TGI was above 77.7 µM in the experiment on SF-295 CNS; above 100 µM with HCT-116 colon; 67.3 µM in the experiment on SK-MEL-2 melanoma; above 100 µM in the experiment with SN12C renal; above 100 µM in the experiment with RPMI-8226 leukemia.

For `O=S(=O)(SC1=NCCN1)c1ccc2ccccc2c1`, the TGI was 42.8 µM in the experiment with MDA-MB-435; above 100 µM in the experiment with CAKI-1 renal; 54.1 µM with U251 CNS; above 100 µM in the experiment with HOP-92 NSCLC; above 100 µM in the experiment on LOX IMVI melanoma; above 100 µM with MCF7 breast. The TGI with SK-OV-3 ovarian is 54.7 µM; with HCC-2998 colon, 38.7 µM; with SK-MEL-5 melanoma, 64.5 µM; in the experiment on SF-539 CNS, 63.7 µM; with SF-268 CNS it was 52.5 µM; in the experiment with OVCAR-8 ovarian it was 40.5 µM. Further, the TGI in the experiment with SF-295 CNS was determined as 65.8 µM; in the experiment on HCT-116 colon, 62.4 µM; in the experiment with SK-MEL-2 melanoma, 80 µM; in the experiment on SN12C renal it was 68.9 µM; in the experiment with RPMI-8226 leukemia, 64 µM.

As to `CC1(C)C2CCC(CN)(C2)C1N` (stereo unspecified), the TGI in the experiment with MDA-MB-435, with CAKI-1 renal, in the experiment on U251 CNS, in the experiment with HOP-92 NSCLC, in the experiment with LOX IMVI melanoma and in the experiment on MCF7 breast was above 100 µM each time. Besides, the TGI in the experiment with SK-OV-3 ovarian, in the experiment on HCC-2998 colon, in the experiment with SK-MEL-5 melanoma, in the experiment on SF-539 CNS, with SF-268 CNS and with OVCAR-8 ovarian was above 100 µM each time. Besides, the TGI in the experiment on SF-295 CNS, in the experiment on HCT-116 colon, with SK-MEL-2 melanoma, in the experiment with SN12C renal and in the experiment on RPMI-8226 leukemia was above 100 µM throughout.

As for `COc1ccc(C[C@@H](CO)NC2=C(C#N)CCC2)cc1`, the TGI in the experiment on MDA-MB-435, in the experiment on CAKI-1 renal, in the experiment with U251 CNS, with HOP-92 NSCLC, in the experiment on LOX IMVI melanoma and with MCF7 breast was above 100 µM each time. The TGI in the experiment on SK-OV-3 ovarian, in the experiment on HCC-2998 colon, with SK-MEL-5 melanoma, in the experiment with SF-539 CNS, in the experiment on SF-268 CNS and with OVCAR-8 ovarian was above 100 µM each time. The TGI was above 100 µM in the experiment with SF-295 CNS; above 100 µM in the experiment on HCT-116 colon; above 100 µM in the experiment on SK-MEL-2 melanoma; above 100 µM in the experiment on SN12C renal; 59.6 µM in the experiment on RPMI-8226 leukemia.

For the compound `CCOC(=O)CCCNC(=O)CCCCC(=O)N(C)C`, the TGI in the experiment with MDA-MB-435, in the experiment on CAKI-1 renal, in the experiment on U251 CNS, in the experiment with HOP-92 NSCLC, in the experiment on LOX IMVI melanoma and in the experiment with MCF7 breast was above 100 µM in each case. Also, the TGI in the experiment on SK-OV-3 ovarian, in the experiment on HCC-2998 colon, in the experiment on SK-MEL-5 melanoma, in the experiment on SF-539 CNS, in the experiment on SF-268 CNS and with OVCAR-8 ovarian was above 100 µM each time. Moreover, the TGI with SF-295 CNS, in the experiment with HCT-116 colon, with SK-MEL-2 melanoma, in the experiment with SN12C renal and with RPMI-8226 leukemia was above 100 µM in each case.

Regarding `CC(C)NC(NC(C)C)=C(S(=O)(=O)C(F)(F)C(F)(F)C(F)(F)C(F)(F)F)S(=O)(=O)C(F)(F)C(F)(F)C(F)(F)C(F)(F)F`, the TGI in the experiment with MDA-MB-435, in the experiment with CAKI-1 renal, with U251 CNS, with HOP-92 NSCLC, in the experiment with LOX IMVI melanoma and in the experiment on MCF7 breast was above 100 µM throughout. For the same compound, the TGI in the experiment with SK-OV-3 ovarian, in the experiment with HCC-2998 colon, in the experiment on SK-MEL-5 melanoma, in the experiment on SF-539 CNS, in the experiment on SF-268 CNS and in the experiment on OVCAR-8 ovarian was above 100 µM throughout. Moreover, the TGI with SF-295 CNS, in the experiment with HCT-116 colon, with SK-MEL-2 melanoma, with SN12C renal and with RPMI-8226 leukemia was above 100 µM throughout.

As for `CCOC(=O)C1(Cc2ccccc2)C=CN(C(=O)c2ccccc2)C=C1`, the TGI in the experiment with MDA-MB-435 is 90.5 µM; in the experiment on CAKI-1 renal it was above 100 µM; with U251 CNS it was above 100 µM; with HOP-92 NSCLC, 80 µM; with LOX IMVI melanoma, above 100 µM; in the experiment with MCF7 breast it was above 100 µM. Further, the TGI in the experiment with SK-OV-3 ovarian was above 100 µM; in the experiment with HCC-2998 colon it was above 100 µM; in the experiment on SK-MEL-5 melanoma it was 29.8 µM; in the experiment on SF-539 CNS, above 100 µM; in the experiment with SF-268 CNS it was above 100 µM; in the experiment with OVCAR-8 ovarian, above 100 µM. In addition, the TGI in the experiment on SF-295 CNS was above 100 µM; in the experiment on HCT-116 colon, above 100 µM; in the experiment with SK-MEL-2 melanoma it was 49.6 µM; in the experiment with SN12C renal, above 100 µM; in the experiment with RPMI-8226 leukemia, 48.6 µM.
